Test results reported in US20260001928A1 (CORTERIA PHARMACEUTICALS, priority 2022, published 2026).
*1 amine or outer side, *2 acyl side, *3 side chain or, on linkers, in order; H or OH if unused. Where a SMILES comes first, the peptide text is derived from it. Side-chain parts run from the residue outwards. [ ]: non-standard residue; d: D form. The star is where a group is joined. C20 diacid = O=C(O)CCCCCCCCCCCCCCCCCCC(=O)*; C18 diacid = O=C(O)CCCCCCCCCCCCCCCCC(=O)*; γGlu = O=C(O)[C@H](CCC(=O)[*:2])N[*:1]; C14 diacid = O=C(O)CCCCCCCCCCCCC(=O)*; Api = NC1(C(=O)O)CCNCC1; AEEA = NCCOCCOCC(=O)O; Aib = CC(C)(N)C(=O)O

Legend:
[1] = Chemical stability in buffer (pH 7.4 / pH 4.5), % purity loss; type: physicochemical; settings: 40° C. vs 5° C., 14 or 28 days; for Buffer stability pH 7.4 % purity loss: 100 mM phosphate buffer pH 7.4
Summary of the method: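 Compounds dissolved at 10 mg/mL target in 100 mM phosphate (pH 7.4) or 100 mM acetate (pH 4.5) buffer for 1 h at room temperature, then centrifuged. Diluted supernatant stored at 5 °C or 40 °C for 14 or 28 days; % purity loss by LC-UV.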

[2] = Pharmacokinetics in male Sprague Dawley rats after subcutaneous administration; type: in vivo; settings: plasma, rat, IV, 0.05 mg/kg
[3] = In vitro subcutaneous tissue supernatant (SCts) stability and metabolite identification, rat; type: in vitro ADME; design: remaining at 2 h: dose or concentration left out as unconfirmed; settings: male, Sprague Dawley; rat subcutaneous tissue supernatant (SCts), 37° C, 2 h
CFR1R receptor = target: T1, CFR1R receptor (Homo sapiens, UniProt P34998); assay: Activity at anti-target CFR1R receptor, cAMP assay in CRF1R-overexpression CHO-K1 cells; type: cell-based; settings: 100% = Sauvagine at 100 nM; for EC50: cAMP
T1 construct: host or cells: CHO-K1 (clone 2)
T1 sequence (P34998 24-415): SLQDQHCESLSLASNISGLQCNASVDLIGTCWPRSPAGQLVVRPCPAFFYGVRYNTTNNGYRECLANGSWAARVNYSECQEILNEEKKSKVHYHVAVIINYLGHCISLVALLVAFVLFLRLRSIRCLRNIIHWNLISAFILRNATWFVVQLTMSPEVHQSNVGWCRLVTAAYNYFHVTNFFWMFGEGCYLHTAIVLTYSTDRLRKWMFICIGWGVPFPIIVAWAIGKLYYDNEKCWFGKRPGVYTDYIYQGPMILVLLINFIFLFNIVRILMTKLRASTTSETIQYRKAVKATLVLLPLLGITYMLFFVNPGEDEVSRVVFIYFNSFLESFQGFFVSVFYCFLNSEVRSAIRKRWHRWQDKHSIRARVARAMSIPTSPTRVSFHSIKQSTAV
Summary of the method: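 cAMP readout in CRF1R-overexpressing CHO-K1 cells (clone 2), run as for the TeloHAEC assay at 4000 cells/well final. Cells came from cryopreserved banks. Sauvagine at 100 nM defined 100% activation.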

human CRF2a receptor = target: T2, human CRF2a receptor (Homo sapiens, UniProt Q13324); assay: Activity at human CRF2a receptor, cAMP functional assay in TeloHEAC cells; type: cell-based; settings: TeloHEAC cells stably expressing human CRF2a receptor, relative to urocortin 2 (100 nM = 100%)
T2 construct: expressed in transfected cells; host or cells: TeloHEAC cells
T2 sequence (Q13324 1-411): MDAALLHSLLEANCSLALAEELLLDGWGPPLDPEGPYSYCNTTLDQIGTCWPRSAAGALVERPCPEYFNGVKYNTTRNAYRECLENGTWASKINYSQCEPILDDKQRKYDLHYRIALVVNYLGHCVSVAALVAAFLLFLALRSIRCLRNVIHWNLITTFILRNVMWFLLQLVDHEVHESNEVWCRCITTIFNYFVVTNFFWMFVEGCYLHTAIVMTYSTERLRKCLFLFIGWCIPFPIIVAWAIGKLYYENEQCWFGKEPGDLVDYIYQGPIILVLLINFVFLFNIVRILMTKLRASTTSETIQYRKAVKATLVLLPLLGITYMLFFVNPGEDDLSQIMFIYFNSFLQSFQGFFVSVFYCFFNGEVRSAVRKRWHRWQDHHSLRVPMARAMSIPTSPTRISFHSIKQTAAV
Summary of the method: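 TeloHEAC cells stably expressing human CRF2a (10000 cells/well) were treated with 16-point 1:2 compound dilutions in HBSS/20 mM HEPES with IBMX for 30 min at 37° C. cAMP was read by HTRF (665/620 nm ratio). EC50 was the concentration giving 50% activation, with 100 nM urocortin 2 set as 100%.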

Sprague Dawley rats = assay: Effect on systolic blood pressure, telemetry in Sprague Dawley rats; type: in vivo, rat; settings: 0.1 mg/kg SC
Summary of the method: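 Sprague Dawley rats with abdominal-aorta telemetry catheters, recovered ≥10 days, received 0.1 mg/kg SC of compound or vehicle. Systolic pressure recorded 1 h pre-dose as baseline, then continuously up to 48 hours, expressed as % change from baseline; duration of action is last time point with a BP effect (n=2).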

[4] = Pharmacokinetics in male Sprague Dawley rats after subcutaneous administration; type: in vivo; settings: plasma, rat, SC, 0.05 mg/kg
Experimental: The pharmacokinetics of UCN-2 derivatives was studied in male Sprague Dawley rats after subcutaneous administration (SC) at 0.05, 0.1, 0.3 or 1 mg/kg. Peptides were formulated as a solution in 10 mM phosphate pH 7.4 buffer+glycerol 85% (2.3% v/v)). […] The supernatant (200 μL) was analyzed by LC-MSMS. Pharmacokinetic parameters were calculated using established non-compartmental methods. The area under the plasma concentration curve versus time (AUC) was determined using Watson LIMS (version 7.6), with linear trapezoidal interpolation in the ascending slope and logarithmic trapezoidal interpolation in the descending slope. The portion of the AUC from the last measurable concentration to infinity was estimated from the equation, Ct/kel, where Ct represents the last measurable concentration and kel is the elimination rate constant. The latter was determined from the concentration curve versus time by linear regression at the terminal phase of the semi-logarithmic plot.

SMILES | Buffer stability pH 7.4 % purity loss [1] | AUC(0-t) [2] [ng·h/mL] | half-life [2] [h] | remaining at 2 h [3] [%] | Emax (% I) (CFR1R receptor) | EC50 (CFR1R receptor) [nM] | EC50 (human CRF2a receptor) [nM] | Systolic blood pressure (Mean) % change from baseline, 8 h (Sprague Dawley rats; 8 h, n=2) [%] | Systolic blood pressure (Mean) % change from baseline, 12 h (Sprague Dawley rats; 12 h, n=2) [%] | Systolic blood pressure (Mean) % change from baseline, 24 h (Sprague Dawley rats; 24 h, n=2) [%] | Duration of action (Sprague Dawley rats; last time point with an effect on BP still observed) [h] | AUC(0-t) [4] [ng·h/mL] | Cmax [4] [ng/mL] | Tmax [4] [h] | half-life [4] [h] | Buffer stability pH 4.5 % purity loss ([1]; 100 mM acetate buffer pH 4.5)
CC[C@H](C)[C@H](NC(C)=O)C(=O)N[C@H](C(=O)N[C@@H](CC(C)C)C(=O)N[C@@H](CO)C(=O)N[C@@H](CC(C)C)C(=O)N[C@@H](CC(=O)O)C(=O)N[C@@H](C(=O)N1CCC[C@H]1C(=O)N[C@H](C(=O)N[C@@H](CCCCN)C(=O)N[C@@H](CC(C)C)C(=O)N[C@@H](CCCCNC(=O)COCCOCCNC(=O)COCCOCCNC(=O)CC[C@H](NC(=O)CCCCCCCCCCCCCCCCCCC(=O)O)C(=O)O)C(=O)N[C@@H](CCCCN)C(=O)N[C@H](C(=O)N[C@@H](CC(C)C)C(=O)N[C@@H](CC(C)C)C(=O)N[C@@H](CCC(=O)O)C(=O)N[C@@H](CCC(N)=O)C(=O)N[C@@H](CCC(=O)O)C(=O)N[C@@H](CCCCN)C(=O)N[C@@H](CCC(N)=O)C(=O)N[C@@H](CCCCN)C(=O)N[C@@H](CCC(=O)O)C(=O)N[C@@H](CCC(N)=O)C(=O)N[C@@H](CCCNC(=N)N)C(=O)N[C@@H](CCC(=O)O)C(=O)N[C@@H](CCC(N)=O)C(=O)N[C@@H](C)C(=O)N[C@@H](CCC(=O)O)C(=O)N[C@H](C(=O)N[C@@H](CC(N)=O)C(=O)NC(C)(C)C(=O)N[C@@H](CCC(N)=O)C(=O)N[C@H](C(=O)N[C@@H](CC(C)C)C(=O)N[C@@H](C)C(=O)N[C@@H](CCC(N)=O)C(=O)N[C@H](C(N)=O)C(C)C)[C@@H](C)CC)[C@@H](C)O)[C@@H](C)CC)[C@@H](C)CC)C(C)C)C(C)C [compound 236] (Ac-IVLSLD[dV]PIKLK([AEEA-AEEA-γGlu-C20 diacid])KILLEQEKQKEQREQAETN[Aib]QILAQV-NH2) | 3.8/Not Tested % | 8250 | 15 | 75 | 7 | > 250 | 0.54 | – | – | – | – | – | – | – | – | –
CC[C@H](C)[C@H](NC(C)=O)C(=O)N[C@H](C(=O)N[C@@H](CC(C)C)C(=O)N[C@@H](CO)C(=O)N[C@@H](CC(C)C)C(=O)N[C@@H](CC(=O)O)C(=O)N[C@@H](C(=O)N1CCC[C@H]1C(=O)N[C@H](C(=O)N[C@@H](CCCCN)C(=O)N[C@@H](CC(C)C)C(=O)N[C@@H](CCCCNC(=O)CC[C@H](NC(=O)CCCCCCCCCCCCC(=O)O)C(=O)O)C(=O)N[C@@H](CCCCN)C(=O)N[C@H](C(=O)N[C@@H](CC(C)C)C(=O)N[C@@H](CC(C)C)C(=O)N[C@@H](CCC(=O)O)C(=O)N[C@@H](CCC(N)=O)C(=O)N[C@@H](CCC(=O)O)C(=O)N[C@@H](CCCCN)C(=O)N[C@@H](CCC(N)=O)C(=O)N[C@@H](CCCCN)C(=O)N[C@@H](CCCCN)C(=O)N[C@@H](CCC(N)=O)C(=O)N[C@@H](CCCNC(=N)N)C(=O)N[C@@H](CCC(=O)O)C(=O)N[C@@H](CCC(N)=O)C(=O)N[C@@H](C)C(=O)N[C@@H](CCC(=O)O)C(=O)N[C@H](C(=O)N[C@@H](CC(N)=O)C(=O)NC(C)(C)C(=O)N[C@@H](CCC(N)=O)C(=O)N[C@H](C(=O)N[C@@H](CC(C)C)C(=O)N[C@@H](C)C(=O)N[C@@H](CCC(N)=O)C(=O)N[C@H](C(N)=O)C(C)C)[C@@H](C)CC)[C@@H](C)O)[C@@H](C)CC)[C@@H](C)CC)C(C)C)C(C)C [compound 82] (Ac-IVLSLD[dV]PIKLK([γGlu-C14 diacid])KILLEQEKQKKQREQAETN[Aib]QILAQV-NH2) | 0.0/Not Tested % | – | – | 82 | – | – | – | −33 | −4 | 11 | 14 | 221 | 64 | 0.75 | 1.4 | –
CC[C@H](C)[C@H](NC(C)=O)C(=O)N[C@H](C(=O)N[C@@H](CC(C)C)C(=O)N[C@@H](CO)C(=O)N[C@@H](CC(C)C)C(=O)N[C@@H](CC(=O)O)C(=O)N[C@@H](C(=O)N1CCC[C@H]1C(=O)N[C@H](C(=O)N[C@@H](CCCCN)C(=O)N[C@@H](CC(C)C)C(=O)N[C@@H](CCCCNC(=O)CC[C@H](NC(=O)CCCCCCCCCCCCCCCCC(=O)O)C(=O)O)C(=O)N[C@@H](CCCCN)C(=O)N[C@H](C(=O)N[C@@H](CC(C)C)C(=O)N[C@@H](CC(C)C)C(=O)N[C@@H](CCC(=O)O)C(=O)N[C@@H](CCC(N)=O)C(=O)N[C@@H](CCC(=O)O)C(=O)N[C@@H](CCCCN)C(=O)N[C@@H](CCC(N)=O)C(=O)N[C@@H](CCCCN)C(=O)NC(C)(C)C(=O)N[C@@H](CCC(N)=O)C(=O)N[C@@H](CCCNC(=N)N)C(=O)N[C@@H](CCC(=O)O)C(=O)N[C@@H](CCC(N)=O)C(=O)N[C@@H](C)C(=O)N[C@@H](CCC(=O)O)C(=O)N[C@H](C(=O)N[C@@H](CC(N)=O)C(=O)NC1(C(=O)N[C@@H](CCC(N)=O)C(=O)N[C@H](C(=O)N[C@@H](CC(C)C)C(=O)N[C@@H](C)C(=O)N[C@@H](CCC(N)=O)C(=O)N[C@H](C(N)=O)C(C)C)[C@@H](C)CC)CCNCC1)[C@@H](C)O)[C@@H](C)CC)[C@@H](C)CC)C(C)C)C(C)C [compound 188] (Ac-IVLSLD[dV]PIKLK([γGlu-C18 diacid])KILLEQEKQK[Aib]QREQAETN[Api]QILAQV-NH2) | 0.0/0.0 ^ % | – | – | 77 | 32 | > 250 | 0.28 | – | – | – | – | 2270 | 138 | 6 | 10.6 | 0.0/0.0 ^ %
